Measurements: ChEMBL document CHEMBL5608172, “Structural modification strategies of triazoles in anticancer drug development” (Eur J Med Chem, 2024)

Experiments:
Detroit 562 = experiment: Antiproliferative activity against human Detroit 562 cells; assay type: functional, cell-based
MCF7 [1] = experiment: Antiproliferative activity against human MCF7 cells assessed as inhibition of cell growth measured after 72 hrs by MTT assay; assay type: functional, cell-based; settings: MCF7, 72 h
MCF7 [2] = experiment: Anticancer activity against human MCF7 cells; assay type: functional, cell-based
A549 [3] = experiment: Antiproliferative activity against human A549 cells assessed as reduction in cell viability incubated for 48 hrs by MTT assay; assay type: toxicity, cell-based; settings: A549, 48 h
[4] = Antiproliferative activity against human WS1 cells assessed as reduction in cell viability incubated for 48 hrs by MTT assay; assay type: toxicity, cell-based
PC-3 [5] = experiment: Cytotoxicity against human PC-3 cells assessed as reduction in cell growth incubated for 48 hrs by MTT assay; assay type: functional, cell-based; settings: PC-3, 48 h
A549 [6] = experiment: Antiproliferative activity against human A549 cells assessed as reduction in cell growth incubated for 72 hrs by MTT assay; assay type: functional, cell-based; settings: A549, 72 h
SCC-25 = experiment: Antiproliferative activity against human SCC-25 cells; assay type: functional, cell-based
Fibroblast = experiment: Antiproliferative activity against human Fibroblast cells; assay type: functional, cell-based
HepG2 [7] = experiment: Antiproliferative activity against human HepG2 cells assessed as inhibition of cell growth measured after 72 hrs by MTT assay; assay type: functional, cell-based; settings: HepG2, 72 h
U-937 = experiment: Antiproliferative activity against human U-937 cells; assay type: functional, cell-based
HL-60 = experiment: Antiproliferative activity against human HL-60 cells; assay type: functional, cell-based
BT-474 = experiment: Antiproliferative activity against human BT-474 cells assessed as inhibition of cell growth measured after 72 hrs by MTT assay; assay type: functional, cell-based; settings: BT-474, 72 h
PC-3 [8] = experiment: Antiproliferative activity against human PC-3 cells assessed as reduction in cell viability incubated for 72 hrs by MTT assay; assay type: functional, cell-based; settings: PC-3, 72 h
K562 [9] = experiment: Antiproliferative activity against human K562 cells assessed as reduction in cell viability incubated for 72 hrs by MTT assay; assay type: functional, cell-based; settings: K562, 72 h
MCF7 [10] = experiment: Anticancer activity against human MCF7 cells assessed as reduction in cell viability incubated for 48 hrs by MTT assay; assay type: functional, cell-based; settings: MCF7, 48 h
HCT-116 = experiment: Anticancer activity against human HCT-116 cells assessed as reduction in cell viability incubated for 48 hrs by MTT assay; assay type: functional, cell-based; settings: HCT-116, 48 h
MCF7 [11] = experiment: Antiproliferative activity against human MCF7 cells assessed as reduction in cell viability incubated for 24 hrs by SRB assay; assay type: functional, cell-based; settings: MCF7, 24 h
SGC-7901 = experiment: Antiproliferative activity against human SGC-7901 cells; assay type: functional, cell-based
HepG2 [12] = experiment: Cytotoxicity against human HepG2 cells assessed as reduction in cell viability incubated for 48 hrs by MTT assay; assay type: functional, cell-based; settings: HepG2, 48 h
HT-29 = experiment: Cytotoxicity against human HT-29 cells assessed as reduction in cell viability incubated for 48 hrs by MTT assay; assay type: functional, cell-based; settings: HT-29, 48 h
CCRF-CEM = experiment: Antiproliferative activity against human CCRF-CEM cells; assay type: functional, cell-based
NCI-H1975 = experiment: Antiproliferative activity against human NCI-H1975 cells assessed as reduction in cell growth incubated for 72 hrs by cell-titer glo assay; assay type: functional, cell-based; settings: NCI-H1975, 72 h
NCI-H1650 = experiment: Antiproliferative activity against human NCI-H1650 cells assessed as reduction in cell growth incubated for 72 hrs by cell-titer glo assay; assay type: functional, cell-based; settings: NCI-H1650, 72 h
K562 [13] = experiment: Cytotoxicity against human K562 cells assessed as reduction in cell growth incubated for 72 hrs by MTT assay; assay type: functional, cell-based; settings: K562, 72 h
PC-3 [14] = experiment: Cytotoxicity against human PC-3 cells assessed as reduction in cell growth incubated for 72 hrs by MTT assay; assay type: functional, cell-based; settings: PC-3, 72 h
[15] = Cytotoxicity against hTERT Lung Fibroblast cells assessed as reduction in cell growth incubated for 72 hrs by MTT assay; assay type: toxicity, cell-based; settings: human
MCF7 [16] = experiment: Cytotoxicity against human MCF7 cells assessed as reduction in cell growth incubated for 72 hrs by MTT assay; assay type: functional, cell-based; settings: MCF7, 72 h

For COCCOc1cc2ncnc(Nc3cccc(-c4cn(-c5ccccc5/C=C/C(=O)c5cc(OC)c(OC)c(OC)c5)nn4)c3)c2cc1OCCOC, the IC50 (Detroit 562) was 0.673 µM.

For COc1cc([N+](=O)[O-])ccc1-n1cc(CN2C(=O)S/C(=C\c3cn(-c4ccccc4)nc3-c3ccccc3)C2=O)nn1, the IC50 (MCF7 [1]) was 0.43 µM.

Cc1cc(=O)oc2cc(-n3cc(-c4cccc(-c5cn(-c6ccc7c(C)cc(=O)oc7c6)nn5)c4)nn3)ccc12 showed an IC50 (MCF7 [2]) of 0.3 µM.

In the case of Cc1ccc(-n2ncc(CN3C(=O)C(F)(F)c4cc(Br)ccc43)n2)cc1Nc1nccc(-c2cccnc2)n1, the IC50 (A549 [3]) is reported as 7.3 µM and the IC50 at 48 h [4] is reported as 18.6 µM.

NC(=S)N/N=C1/C(=O)N(Cc2cn(CC(=O)c3ccc(Br)cc3)nn2)c2ccccc21 gave an IC50 (PC-3 [5]) of 15.3 µM.

Work on COc1ccc2c(-n3cc(-c4cc(OC)c(OC)c(OC)c4)nn3)c(C(=O)Nc3ccccc3)oc2c1 yielded an IC50 (A549 [6]) of 0.57 µM.

Work on CC(C)CCC1=C(OCc2cn(-c3cccc(Cl)c3)nn2)C(=O)c2ccccc2C1=O yielded an IC50 (SCC-25) of 9.81 µM and an IC50 (Fibroblast) of 210 µM.

For Cc1ccc(/N=N/c2sc(N/N=C/c3cn(-c4ccccc4)nc3-c3nnn(-c4ccc(Br)cc4)c3C)nc2C)cc1, the IC50 (HepG2 [7]) was 2.3 µM.

Nc1ccc(-c2nnc(Sc3nc4ccccc4n4c(Nc5ccccc5)nnc34)o2)cc1 gave an IC50 (U-937) of 2.65 µM and an IC50 (HL-60) of 2.72 µM.

With COc1ccc(Cn2cc(Cn3c(=O)c(-c4nc5ccccc5[nH]4)cc4ccccc43)nn2)c(OC)c1OC the IC50 (BT-474) was 0.59 µM.

O=C1C(=O)c2cc(Cn3cc(-c4ccccc4)nn3)oc2-c2ccccc21 gave an IC50 (PC-3 [8]) of 1.4 µM and an IC50 (K562 [9]) of 1.3 µM.

For CN(C)c1ccc(/C=N/c2nnc(S[C@@H]3O[C@H](CO)[C@@H](O)[C@H](O)[C@H]3O)s2)cc1, the IC50 (MCF7 [10]) was 17.3 µM and the IC50 (HCT-116) was 12.1 µM.

CC(=O)OC[C@H]1OC(n2cc(COc3cccc4cccnc34)nn2)[C@@H](OC(C)=O)[C@H](OC(C)=O)[C@H]1OC(C)=O (some centres undefined) showed an IC50 (MCF7 [11]) of 4.12 µM.

Work on CC1(C)CC[C@]23CC[C@]4(C)[C@H](CC[C@@H]5[C@@]6(C)Cc7nnn(CCCCC[P+](c8ccccc8)(c8ccccc8)c8ccccc8)c7C(C)(C)[C@@H]6CC[C@]54C)[C@H]2[C@H]1OC3 yielded an IC50 (SGC-7901) of 1.05 µM.

Work on O=c1oc2ccccc2c(O)c1Sc1nnc(-c2ccc(Cl)cc2)o1 yielded an IC50 (HepG2 [12]) of 3.46 µM and an IC50 (HT-29) of 18.6 µM.

CN(C)c1ccc(/C=N/c2nnc(S[C@@H]3O[C@H](CO)[C@H](O)[C@H](O)[C@H]3O)s2)cc1 gave an IC50 (MCF7 [10]) of 21.7 µM and an IC50 (HCT-116) of 14.4 µM.

For CC1(C)CC[C@]23CC[C@]4(C)[C@H](CC[C@@H]5[C@@]6(C)CC[C@H](O)C(C)(C)[C@@H]6CC[C@]54C)[C@H]2[C@H]1OC3 [ALLOBETULIN], the IC50 (SGC-7901) was 52.2 µM.

Work on COc1ccc(/C=C\c2cc(OC)c(OC)c(OC)c2)cc1O [COMBRETASTATIN A4] yielded an IC50 (A549 [6]) of 0.04 µM.

Work on COc1cc(/C=C/C(=O)CC(=O)/C=C/c2ccc(O)c(OC)c2)ccc1O [CURCUMIN] yielded an IC50 (CCRF-CEM) of 10.5 µM.

C#Cc1cccc(Nc2ncnc3cc(OCCOC)c(OCCOC)cc23)c1 [ERLOTINIB] gave an IC50 (NCI-H1975) of 37 µM and an IC50 (NCI-H1650) of 40 µM.

Cc1ccc(NC(=O)c2ccc(CN3CCN(C)CC3)cc2)cc1Nc1nccc(-c2cccnc2)n1 [IMATINIB] showed an IC50 (A549 [3]) of 65 µM and an IC50 at 48 h [4] of 9.6 µM.

For Cc1coc2c1C(=O)C(=O)c1c-2ccc2c1CCCC2(C)C [TANSHINONE IIA], the IC50 (K562 [13]) was 4.6 µM and the IC50 (PC-3 [14]) was 3.2 µM.

In the case of C[C@H]1[C@H](C)CC[C@]2(C(=O)O)CC[C@]3(C)C(=CC[C@@H]4[C@@]5(C)CC[C@H](O)C(C)(C)[C@@H]5CC[C@]43C)[C@H]12 [URSOLIC ACID], the IC50 at 72 h [15] is reported as 90.9 µM and the IC50 (MCF7 [16]) is reported as 25.1 µM.
